The test system of one assay is IL-8. Kind of assay: TNFα-induced IL-8 secretion by gingival fibroblasts (ELISA). The format is cell-based, Human. As to conditions: for secreted IL-8 versus fibroblasts not treated with Tβ4: gingival fibroblasts, 20 ng/ml TNF alpha. How it is done:
Human gingival Fb grown to 80% confluence, serum-starved, pretreated with Tb4 for one hour then with 20 ng/ml TNFa±Tb4 for 24 hours. […] of conditioned medium was used for ELISA. After removing medium, cells are fixed, stained, and lysed. OD 550 nm readings are used to normalize ELISA data for total cell number. Media control values were negligible and are not shown.
Human gingival fibroblasts (HGF-1, ATCC) were stimulated with TNFα (20 ng/ml), a potent pro-inflammatory cytokine widely used in in vitro models of inflammation.
(In an ELISA, binding on a coated surface is turned into a signal by an enzyme label.)

Assay [1] deals with NFκB. In words: NFκB activity assay (binding to consensus oligonucleotides) in TNF-α stimulated HCET. The format is cell-based, human. The following applies: TNF-α 10 ng/ml. How it is done: (§1) At each time point the culture medium was removed and the adherent cells were scraped from the dish into 1 ml of cold PBS. The solution was centrifuged at 3000 rpm for 5 minutes. The cell pellet was lysed in 1 ml of cell extraction buffer provided with the activity assay kit (TransAm NFκB p65 Transcription Factor Assay Kit, Active Motif, Carlsbad, Calif.) on ice for 30 minutes, with vortexing every 10 minutes. The extract was centrifuged at 13,000 rpm for 10 minutes at 4° C. and the supernatant was used for activity assays following the kit protocol. In addition to the activity assay, the ELISA for total NFκB p65 subunit protein was completed simultaneously using aliquots of the same supernatants. ELISA values were used to standardize the activity values to correct for differences in protein concentration in each sample. The assays were repeated three times (n=3) and the results of a representative assay are reported as NFκB activity in arbitrary units±SEM. Statistical analysis was performed using the unpaired Student's t-test with significance set at P<0.05.
We hypothesized that Tβ4 functions as a transcription factor mediator in addition to its other known cellular functions. […] Transcription factor activity was analyzed calorimetrically using an assay that measured the ability of NFκB to bind to oligonucleotides containing consensus κB binding motifs immobilized to a plastic substrate. […]

The test system of assay [2] is NFκB. In words: NFκB activity assay in TNF-α stimulated non-transformed human corneal epithelial cells (HCEC). The format is cell-based. As to conditions: non-transformed human corneal epithelial culture, Tβ4 treatment, results not shown. How it is done: Non-transformed human corneal epithelial cells (HCEC) at passage 3 were purchased from Cascade Biologics (Portland, Oreg.). […] HCEC were used for experiments at passage 4. The transformed human corneal epithelial cell line 10.014 pRSV-T (HCET) was additionally used in this study. HCET were maintained in serum-free KGM on tissue culture plastic coated with a fibronectin-collagen type I matrix. Cells were cultured in a standard tissue culture incubator at 37° C. and in an atmosphere of 5% CO2 and 95% room air with medium changes every two days.
as §1, with “The assays were repeated three times (n=3) and the results of a representative assay are reported as NFκB activity in arbitrary units±SEM. Statistical analysis was performed using the unpaired Student's t-test with significance set at P<0.05.” left out

For the next assay, the system named is gingival fibroblasts. Kind of assay: APOPercentage apoptosis assay in TNF-α stimulated gingival fibroblasts. Format: cell-based, Human. The following applies: TNF-α 20 ng/ml, 8 hours, 0.01 ug/ml Tβ4, p=0.0004. Here is the method:
It is well documented that proteases from oral bacteria such as P. gingivalis can induce death in different cell types in vitro, including fibroblasts, epithelial cells, and endothelial cells. Apoptosis can also be induced as a component of the inflammatory response.
The fibroblasts were then assayed using the APOPercentage assay (Accurate Chemical, Westbury, N.Y.), which detects changes in cell membrane phospholipids. […] The absorbance of released dye can be measured and correlated to the relative amount of apoptosis in the culture. […] There were a greater number of apoptotic cells in fibroblasts stimulated with TNFα compared to cells stimulated with TNFα and also treated with Tβ4.

For assay [3], the system named is NFκB p65 subunit. In words: NFκB p65 phosphorylation assay (CASE ELISA, phosphoserine 276) in HCET. The format is cell-based, human. The following applies: 30 minutes. How it is done: HCET were cultured in wells of a 96-well plate until approximately 80% confluent. […] At each time point adherent cells were fixed in cell fixing buffer containing 4% glutaraldehyde according to the phosphorylation assay kit protocol (CASE, cellular activation of signaling ELISA for phosphoserine 276 of NFκB p65 subunit, SuperArray, Frederick, Md.). Fixed cells were then processed using phospho-specific (phosphoserine 276 p65) or pan-protein specific (nonphosphorylated p65) primary antibodies and HRP-conjugated secondary antibodies. Following incubation with developing and stop solutions provided with the kit, individual well absorbance was read at 450 nm. Variation in cell number in individual wells was corrected by assaying the OD 540 nm of stained cells following completion of the phosphorylation assay and performing numerical correction of the OD 450 nm values. The assay was repeated twice (n=8) and a representative result is presented as relative amounts of phosphorylated and nonphosphorylated NFκB in arbitrary units±SEM. Statistical analysis was performed using the unpaired Student's t-test with significance set at P<0.05.
In addition to nuclear translocation, the p65 subunit of NFκB must undergo phosphorylation on several serine residues in order to be activated. […]

Assay [4] has as its system NFκB p65 subunit. Kind of assay: Nuclear NFκB p65 protein level ELISA in HCET nuclear fractions. Format: cell-based, human. As to conditions: TNF-α 10 ng/ml, Tβ4 1 μg/ml, 30 minutes, P=0.0066. Here is the method:
HCET were cultured until approximately 80% confluent. […] Cells maintained in culture medium only, or Tβ4 only were used as controls. The culture medium was removed and the adherent cells were scraped from the dish into 1 ml of cold PBS. The solution was centrifuged at 3000 rpm for 5 minutes. The cell pellet was resuspended in 0.5 ml hypotonic buffer (20 mM Tris-HCl, pH 7.4, 10 mM NaCl, 3 mM MgCl2) and incubated on ice for 15 minutes. 25 μl of 10% NP-40 was added with vortexing. The homogenate was centrifuged for 10 minutes at 3000 rpm at 4° C. The pellet was resuspended in 100 μl of the cell extraction buffer and incubated for 30 minutes on ice with vortexing every 10 minutes. The homogenate was centrifuged at 14,000 rpm for 30 minutes at 4° C. The resulting supernatant was used for the NFκB total p65 subunit ELISA. A representative analysis is presented as NFκB protein (pg/ml)±SEM. Statistical analysis was performed using the unpaired Student's t-test with significance set at P<0.05.
Nuclear translocation is an essential downstream event in NFκB mediated gene transcription. […] HCET were treated for 30 minutes and the amount of NFκB protein in nuclear fractions was measured by ELISA. Only activated, phosphorylated NFκB is capable of translocating to the nucleus.

Assay [5] deals with NFκB p65 subunit. In words: Nuclear translocation of NFκB p65 by immunofluorescence microscopy in HCET. The format is cell-based, human. The following applies: Tβ4 1 μg/ml during TNF-α stimulation, 30 minutes. How it is done: HCET were cultured on collagen-coated 4 chambered glass microscope slides to approximately 80% confluence. […] Cells maintained in culture medium only, or Tβ4 only were used as controls. Cells were fixed in 3.7% glutaraldehyde/PBS for 10 minutes then washed in PBS. Cells were permeabilized in 1% Triton X-100 for 5 minutes and washed again. The cells were then incubated with rabbit polyclonal antibodies specific for the N-terminus of human p65 NFκB (Santa Cruz Biotechnologies, Santa Cruz, Calif.) followed by FITC-conjugated goat anti-rabbit secondary antibodies. Digitized images were captured and stored (Axiophot fluorescence microscopy and imaging system, Carl Zeiss Medicine, Inc., Thornwood, N.Y.).
The nuclear translocation of NFκB was also examined morphologically in HCET by immunofluoresence microscopy using an antibody specific for the p65 subunit.

Consider one substance from patent publication US8399412B2, “Method of treating or preventing tissue deterioration, injury or damage due to periodontal disease or disease of oral mucosa, and/or downregulating NF-kappabeta or supressing NF-kappabeta-mediated actions” (priority 2006, dated 2013).

Consider Thymosin beta 4 [Tβ4], for which the “inhibition of TNFα-stimulated IL-8 secretion” value in the assay on IL-8 (HGF-1 fibroblasts, TNFα 20 ng/ml, 0.01 ug/ml Tβ4, 24 hours, p=0.0012) is recorded as “most inhibition”. Moreover, the “IL-8 secretion, dose response” value in the assay on IL-8 (HGF-1 fibroblasts, TNFα 20 ng/ml, several concentrations of Tβ4, 24 hours, FIG. 3) is on record as “inhibited IL-8 secretion in a dose-dependent manner”. Further, the “secreted IL-8 versus fibroblasts not treated with Tβ4” value is “significantly lower levels of secreted IL-8” in the assay with IL-8 (1 ug/ml Tβ4, 24 hours, FIG. 1, p=0.0004); “significantly lower levels of secreted IL-8” with IL-8 (5 ug/ml Tβ4, 24 hours, FIG. 1, p=0.0016); “lower levels of secreted IL-8” with IL-8 (Tβ4 0.001-5 ug/ml (all levels), 24 hours). In addition, the “NFκB activity versus cells stimulated with TNF-α” value in the assay with NFκB [1] (Tβ4 1 μg/ml, 5, 10, 15 and 20 minutes of stimulation) is reported as “increased NFκB activity”. Also, the “TNF-α induced activation of NFκB” value with NFκB [1] (Tβ4 1 μg/ml, 30 and 60 minutes) was “significantly suppressed”. The “NFκB activity after TNF-α stimulation” value with NFκB [2] was “decreased NFκB activity”. Also, the “apoptotic cell death induced by TNF-α” value in the assay on gingival fibroblasts is listed as “significantly inhibits apoptotic cell death”. Further, the “reduction of NFκB phosphorylation levels” value in the assay with NFκB p65 subunit [3] (TNF-α 10 ng/ml, Tβ4 1 μg/ml) worked out at 45%. Besides, in the assay on NFκB p65 subunit [3] (Tβ4 present during TNF-α stimulation, 100% with TNF-α only), the “proportion of phosphorylated NFκB” value was 55%. Further, in the assay with NFκB p65 subunit [4], the “NFκB protein in nuclear fractions” value is “significant decrease”. The “NFκB p65 localization (fluorescence pattern)” value in the assay with NFκB p65 subunit [5] is given as “mainly perinuclear”.
